Experimental data published in paper PMC7932537, “Quantitative profiling of protease specificity” (PLoS Computational Biology, 2021).

What was measured:
MMP-2 [1] = assay: Substrate phage display with NGS: relative probability (RP) of P3-P1' tetramer clusters; format: biochemical, human; conditions: MMP2;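 also: ratio of tetramer probability after protease selection to that in naive phage library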
MMP-2 [2] = target: T1, MMP-2 (Homo sapiens, UniProt P08253); assay: K(obs) of individual phage substrates (set of 1369); format: biochemical; conditions: MMP2
T1 sequence (P08253 110-660): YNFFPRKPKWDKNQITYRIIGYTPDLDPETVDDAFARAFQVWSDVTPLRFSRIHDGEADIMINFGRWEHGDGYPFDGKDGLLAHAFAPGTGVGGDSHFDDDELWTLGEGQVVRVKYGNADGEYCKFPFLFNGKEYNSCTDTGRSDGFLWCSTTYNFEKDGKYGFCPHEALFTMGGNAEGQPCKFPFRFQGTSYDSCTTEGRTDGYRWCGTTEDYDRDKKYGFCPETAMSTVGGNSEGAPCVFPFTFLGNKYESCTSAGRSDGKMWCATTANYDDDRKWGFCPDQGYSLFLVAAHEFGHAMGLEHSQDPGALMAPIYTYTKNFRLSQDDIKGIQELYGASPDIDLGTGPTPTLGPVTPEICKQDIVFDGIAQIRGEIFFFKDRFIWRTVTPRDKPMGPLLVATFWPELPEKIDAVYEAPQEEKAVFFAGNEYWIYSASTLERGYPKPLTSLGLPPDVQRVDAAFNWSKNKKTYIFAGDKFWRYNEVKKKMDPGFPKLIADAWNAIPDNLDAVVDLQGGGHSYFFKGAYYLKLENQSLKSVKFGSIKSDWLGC

MMP-9 = MMP-9 (Homo sapiens, UniProt P14780); assay: as above; format: biochemical; conditions: MMP9
Sequence of MMP-9 (P14780 94-707): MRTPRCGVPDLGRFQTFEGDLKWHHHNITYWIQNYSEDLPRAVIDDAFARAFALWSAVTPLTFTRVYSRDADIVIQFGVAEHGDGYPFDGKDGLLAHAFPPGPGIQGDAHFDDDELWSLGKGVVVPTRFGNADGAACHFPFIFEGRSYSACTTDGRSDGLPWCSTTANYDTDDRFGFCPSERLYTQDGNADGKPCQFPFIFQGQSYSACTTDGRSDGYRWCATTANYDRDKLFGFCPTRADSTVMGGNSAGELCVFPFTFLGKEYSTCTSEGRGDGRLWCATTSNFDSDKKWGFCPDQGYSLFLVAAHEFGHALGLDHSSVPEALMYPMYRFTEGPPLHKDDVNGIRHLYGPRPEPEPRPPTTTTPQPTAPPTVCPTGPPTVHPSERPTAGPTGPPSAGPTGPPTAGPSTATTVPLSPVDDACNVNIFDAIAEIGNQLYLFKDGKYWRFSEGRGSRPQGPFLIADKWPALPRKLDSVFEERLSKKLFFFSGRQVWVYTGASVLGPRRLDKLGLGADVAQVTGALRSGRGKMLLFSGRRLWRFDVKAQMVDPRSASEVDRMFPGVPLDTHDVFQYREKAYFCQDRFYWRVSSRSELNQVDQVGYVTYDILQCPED

[3] = RP of the P3-P1' tetramer contained in the substrate (substrate phage display with NGS)
[4] = individual phage substrates, set of 1369 peptides, cleavage position marked by hyphen in sequence
[5] = individual phage substrates, set of 1369 peptides, hyphen in sequence marks cleavage position
[6] = RP of the P3-P1' tetramer contained in the substrate
[7] = individual phage substrate of the set of 1369 peptides, cleavage position marked by '-'
[8] = individual phage substrate of the set of 1369 peptides, dash in the sequence marks the cleavage position

Substance	relative probability (RP) (MMP-2 [1]; [3])	Kobs (MMP-2 [2]; [4])	Kobs (MMP-9; [5])	relative probability (RP) (MMP-2 [1]; [6])	Kobs (MMP-2 [2]; [7])	Kobs (MMP-9; [8])
SGPSG-MRVTA	32.7604	7386.83 M⁻¹ s⁻¹	6688.74 M⁻¹ s⁻¹			
SGPSM-LTATA	33.0235	9740.44 M⁻¹ s⁻¹	7386.83 M⁻¹ s⁻¹			
SGPSS-LFATA				35.4913	12792.1 M⁻¹ s⁻¹	12792.1 M⁻¹ s⁻¹
SGPSW-LYTTA	35.705	9740.44 M⁻¹ s⁻¹	10866.7 M⁻¹ s⁻¹			
SGPTA-LRATA				32.8941	10866.7 M⁻¹ s⁻¹	12792.1 M⁻¹ s⁻¹
SGPTN-LRTTA				31.0288	12792.1 M⁻¹ s⁻¹	12792.1 M⁻¹ s⁻¹
SGPVA-LYKTA	34.2983	12792.1 M⁻¹ s⁻¹	12792.1 M⁻¹ s⁻¹			
SGPVH-LLNTA				32.2352	3344.37 M⁻¹ s⁻¹	2280.5 M⁻¹ s⁻¹
SGPVM-LRGTA	25.0294	12792.1 M⁻¹ s⁻¹	12792.1 M⁻¹ s⁻¹			
SGPVN-LISTA				34.508	6131.32 M⁻¹ s⁻¹	12792.1 M⁻¹ s⁻¹
SGPYP-LWKTA				30.8058	2218.08 M⁻¹ s⁻¹	3079.62 M⁻¹ s⁻¹
SGPYT-LVMTA	16.827	517.582 M⁻¹ s⁻¹	8321.48 M⁻¹ s⁻¹			
SGQRG-IYATA				7.484	2157.02 M⁻¹ s⁻¹	3344.37 M⁻¹ s⁻¹
SGRRN-LMNTA	6.1579	912.511 M⁻¹ s⁻¹	484.315 M⁻¹ s⁻¹			
SGSHG-LRSTA				0.2009	1763.55 M⁻¹ s⁻¹	1154.21 M⁻¹ s⁻¹
SGSLA-LQSTA	6.019	27.918 M⁻¹ s⁻¹	619.843 M⁻¹ s⁻¹			
SGSMR-LVLTA	0	0 M⁻¹ s⁻¹	0 M⁻¹ s⁻¹			
SGSRA-LTASG				12.4506	2097.28 M⁻¹ s⁻¹	951.362 M⁻¹ s⁻¹
SGTLN-LYNTA				2.764	0 M⁻¹ s⁻¹	0 M⁻¹ s⁻¹
SGVFW-MRGTA	10.3215	3438.54 M⁻¹ s⁻¹	5461.43 M⁻¹ s⁻¹			
SGVLG-LIGTA	24.4128	12792.1 M⁻¹ s⁻¹	12792.1 M⁻¹ s⁻¹			
SGVMG-IRITA				12.4242	484.315 M⁻¹ s⁻¹	1418.96 M⁻¹ s⁻¹
SGVNH-LMTTA				12.8499	201.585 M⁻¹ s⁻¹	231.616 M⁻¹ s⁻¹
SGVRA-IIATA				26.2338	12792.1 M⁻¹ s⁻¹	12792.1 M⁻¹ s⁻¹
SGVRF-LKGTA	15.0438	5269.78 M⁻¹ s⁻¹	12792.1 M⁻¹ s⁻¹			
SGVRF-LMNTA				15.0438	1418.96 M⁻¹ s⁻¹	9740.44 M⁻¹ s⁻¹
